Tests used:
[1] = Cooling strength and longevity in toothpaste; type: in vivo; details: compared with controls
Description: New cooling compound according to compound A2 was tested in toothpaste and its impact was evaluated against two controls (no coolant and a known coolant WS-5) and in combination with WS-5.

[2] = Cooling evaluation in hard boiled candy; type: in vivo; details: compared with both control samples
Description: Compound A2 was tested in hard boiled candy and evaluated against controls.

[3] = test system: sensory panel; assay: Sensory panel evaluation of cooling ability, 20 ppm aqueous solutions; type: in vivo; details: 20 ppm aqueous solution
Description: The new carboxamides A1-A15 and B1-B15 were evaluated for their cooling ability by a sensory panel. The evaluation included tasting the 20 ppm aqueous solutions of new carboxamides and rating their maximum cooling strength on a 1-10 scale. In addition, the time at which maximum cooling strength was reached, how long the maximum strength was observed (so called cooling plateau), and the longevity of cooling sensation were recorded. The FIGURE represents a typical cooling profile, using compound A1 as an example. The obtained results (table 2), were compared with two most commonly used commercial cooling compounds WS-3 and WS-23 which belong to the same class of N-alkyl carboxamides. While various methods exist for evaluation of cooling compounds, we have chosen the parameters that allow to assess the practical aspects of new compounds that reflect their potential value as commercial sensory ingredients.

[4] = Cooling strength and longevity in alcohol-free mouthwash; type: in vivo; details: compared with WS-5
Description: Select physiological coolants according to various embodiments were tested in an alcohol-free mouthwash and their impact was evaluated against the control (a known coolant WS-5).

Compound: CC(C)CCNC(=O)C1CC(C)CCC1C(C)C (stereo not drawn) [Compound A2]
- Cooling effect in toothpaste, in words [1]: superior and longer lasting effect
- melting point: 69.6 °C
- Cooling impact in hard candy, in words [2]: long-lasting cooling impact
- Longevity of cooling sensation [3]: 23 min
- Time to reach peak cooling [3]: 5 min
- Time period at peak cooling ([3]; cooling plateau): 2 min
- Peak cooling strength ([3]; maximum cooling strength rated on a 1-10 scale): 7
- Peak Strength ([3]; Table 4, repeats Table 2, 1-10 scale): 7
- Cooling effect in mouthwash, in words [4]: superior long-lasting cooling effect
